Experimental data taken from PubChem BioAssay (NCI).
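Protocol summary: plate cells (96-well), add compound at 5 concentrations, incubate 48 h, interpolate endpoints linearly. At the GI50, growth is halved. TGI marks complete inhibition of growth.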

How the values were obtained:
Assay in all cases: NCI-60 cell line screen, 48 h
[1] = test system: UO-31 renal
[2] = test system: MALME-3M melanoma
[3] = test system: MOLT-4 leukemia
[4] = test system: COLO 205 colon
[5] = test system: SK-OV-3 ovarian
[6] = test system: HCT-116 colon
[7] = test system: ACHN renal
[8] = test system: KM12 colon
[9] = test system: OVCAR-5 ovarian
[10] = test system: OVCAR-3 ovarian
[11] = test system: LOX IMVI melanoma
[12] = test system: NCI-H23 lung
[13] = test system: HCT-15 colon
[14] = test system: HL-60(TB) leukemia
[15] = test system: SNB-75 CNS
[16] = test system: CCRF-CEM leukemia
[17] = test system: SF-539 CNS
[18] = test system: NCI-H226 lung
[19] = test system: HCC-2998 colon
[20] = test system: HOP-92 NSCLC
[21] = test system: NCI-H522 lung
[22] = test system: MDA-MB-435
[23] = test system: A498 renal
[24] = test system: SK-MEL-2 melanoma
[25] = test system: SNB-19 CNS
[26] = test system: NCI/ADR-RES ovarian
[27] = test system: SF-268 CNS
[28] = test system: HT29 colon
[29] = test system: NCI-H460 lung
[30] = test system: IGROV1 ovarian
[31] = test system: SF-295 CNS
[32] = test system: RXF 393 renal
[33] = test system: K-562 leukemia
[34] = test system: A549 NSCLC
[35] = test system: EKVX NSCLC
[36] = test system: TK-10 renal
[37] = test system: SK-MEL-28 melanoma
[38] = test system: HS 578T breast
[39] = test system: U251 CNS
[40] = test system: M14 melanoma
[41] = test system: CAKI-1 renal
[42] = test system: MCF7 breast
[43] = test system: SK-MEL-5 melanoma
[44] = test system: MDA-MB-231 breast
[45] = test system: OVCAR-4 ovarian
[46] = test system: UACC-62 melanoma
[47] = test system: T-47D breast
[48] = test system: SN12C renal
[49] = test system: DU-145 prostate
[50] = test system: PC-3 prostate
[51] = test system: UACC-257 melanoma
[52] = test system: SW-620 colon
[53] = test system: HOP-62 NSCLC
[54] = test system: 786-0 renal
[55] = test system: BT-549 breast
[56] = test system: OVCAR-8 ovarian
[57] = test system: SR leukemia

O=S(=O)(Nc1cccc(Cl)c1)c1ccc(-c2cnc(C3CC3)o2)cc1
GI50 [1]: 1.68 µM
TGI [1]: 18.8 µM
GI50 [2]: 10.3 µM
TGI [2]: 32 µM
GI50 [3]: 0.657 µM
TGI [3]: 60.1 µM
GI50 [4]: 0.639 µM
TGI [4]: 6.18 µM
GI50 [5]: 5.41 µM
TGI [5]: 24.9 µM
GI50 [6]: 0.48 µM
TGI [6]: 18.7 µM
GI50 [7]: 0.925 µM
TGI [7]: 37 µM
GI50 [8]: 0.443 µM
TGI [8]: 16.6 µM
GI50 [9]: 2.39 µM
TGI [9]: 18.3 µM
GI50 [10]: 0.417 µM
TGI [10]: 12.3 µM
GI50 [11]: 0.617 µM
TGI [11]: 18.4 µM
GI50 [12]: 2.14 µM
TGI [12]: 20.4 µM
GI50 [13]: 0.43 µM
TGI [13]: 20.3 µM
GI50 [14]: 0.388 µM
TGI [14]: 12.3 µM
GI50 [15]: 0.208 µM
TGI [15]: 1.96 µM
GI50 [16]: 0.624 µM
TGI [16]: > 100 µM
GI50 [17]: 0.683 µM
TGI [17]: 11.8 µM
GI50 [18]: 1.9 µM
TGI [18]: 17.2 µM
GI50 [19]: 2.87 µM
TGI [19]: 17.1 µM
GI50 [20]: 1.74 µM
TGI [20]: 15.2 µM
GI50 [21]: 0.509 µM
TGI [21]: 16.2 µM
GI50 [22]: 0.379 µM
TGI [22]: 16.7 µM
GI50 [23]: 0.453 µM
TGI [23]: 9.03 µM
GI50 [24]: 0.695 µM
TGI [24]: 20.3 µM
GI50 [25]: 1.31 µM
TGI [25]: 35.8 µM
GI50 [26]: 0.581 µM
TGI [26]: 17 µM
GI50 [27]: 3.28 µM
TGI [27]: 25.2 µM
GI50 [28]: 0.372 µM
TGI [28]: 12.2 µM
GI50 [29]: 0.446 µM
TGI [29]: 16.7 µM
GI50 [30]: 0.662 µM
TGI [30]: 21.6 µM
GI50 [31]: 0.394 µM
TGI [31]: 12 µM
GI50 [32]: 0.835 µM
TGI [32]: 10.9 µM
GI50 [33]: 0.305 µM
TGI [33]: 66 µM
GI50 [34]: 1.35 µM
TGI [34]: 44 µM
GI50 [35]: 2.88 µM
TGI [35]: 40.3 µM
GI50 [36]: 5.11 µM
TGI [36]: 26.5 µM
GI50 [37]: 10.2 µM
TGI [37]: 23 µM
GI50 [38]: 0.679 µM
TGI [38]: 16.6 µM
GI50 [39]: 0.768 µM
TGI [39]: 19.8 µM
GI50 [40]: 0.593 µM
TGI [40]: 24.3 µM
GI50 [41]: 0.232 µM
TGI [41]: 14 µM
GI50 [42]: 0.398 µM
TGI [42]: 51.6 µM
GI50 [43]: 2.01 µM
TGI [43]: 14.4 µM
GI50 [44]: 2.45 µM
TGI [44]: 22 µM
GI50 [45]: 2.92 µM
TGI [45]: 16.7 µM
GI50 [46]: 0.47 µM
TGI [46]: 15.3 µM
GI50 [47]: 0.519 µM
TGI [47]: 22 µM
GI50 [48]: 1.62 µM
TGI [48]: 20.9 µM
GI50 [49]: 2.68 µM
TGI [49]: 29.1 µM
GI50 [50]: 0.668 µM
TGI [50]: 17.6 µM
GI50 [51]: 6.98 µM
TGI [51]: 30.2 µM
GI50 [52]: 0.409 µM
TGI [52]: 31.3 µM
GI50 [53]: 0.74 µM
TGI [53]: 16.3 µM
GI50 [54]: 3.9 µM
TGI [54]: 34.8 µM
GI50 [55]: 1.25 µM
TGI [55]: 22.7 µM
GI50 [56]: 1.95 µM
TGI [56]: 32.9 µM
GI50 [57]: 0.409 µM
TGI [57]: 32.4 µM
